Assays:
HT29 = HT29 (Colon Cancer), 48 hours, SRB
M14 = M14 (Melanoma), 48 hours, SRB
HS578T = assay: cells; settings: Homo sapiens, Hs-578T, 48 h
NCI-H226 = NCI-H226 (Non-Small Cell Lung Cancer), 48 hours, SRB
OVCAR-8 = assay: cells; settings: Homo sapiens, OVCAR-8, 48 h
MDA-MB-435 [1] = settings: MDA-MB-435 (Breast Cancer), 48 hours, SRB
TK-10 = TK-10 (Renal Cancer), 48 hours, SRB
MDA-MB-231/ATCC = MDA-MB-231/ATCC (Breast Cancer), 48 hours, SRB
COLO 205 = COLO 205 (Colon Cancer), 48 hours, SRB
NCI-H522 = NCI-H522 (Non-Small Cell Lung Cancer), 48 hours, SRB
MDA-MB-468 [2] = settings: MDA-MB-468 (Breast Cancer), 48 hours, SRB
HCC-2998 = HCC-2998 (Colon Cancer), 48 hours, SRB
MALME-3M = MALME-3M (Melanoma), 48 hours, SRB
OVCAR-3 = assay: cells; settings: Homo sapiens, OVCAR-3, 48 h
A498 = A498 (Renal Cancer), 48 hours, SRB
SF-268 = SF-268 (CNS Cancer), 48 hours, SRB
786-0 = 786-0 (Renal Cancer), 48 hours, SRB
NCI/ADR-RES = NCI/ADR-RES (Breast Cancer), 48 hours, SRB
SNB-75 [3] = assay: cells; settings: Homo sapiens, SNB-75, 48 h
DU-145 = DU-145 (Prostate Cancer), 48 hours, SRB
HCT-116 = HCT-116 (Colon Cancer), 48 hours, SRB
SK-MEL-28 = SK-MEL-28 (Melanoma), 48 hours, SRB
SF-295 = assay: cells; settings: Homo sapiens, SF-295, 48 h
MDA-MB-435 [4] = assay: cells; settings: Homo sapiens, MDA-MB-435, 48 h
SR = SR (Leukemia), 48 hours, SRB
MDA-MB-468 [5] = assay: cells; settings: Homo sapiens, MDA-MB-468, 48 h
BT-549 = BT-549 (Breast Cancer), 48 hours, SRB
SNB-75 [6] = settings: SNB-75 (CNS Cancer), 48 hours, SRB
SW-620 = SW-620 (Colon Cancer), 48 hours, SRB

Cc1cc(C)cc(-c2ccc3c(c2)[N+]([O-])=C2C3=C[C@@]34NC(=O)C5(CCCN5C3=O)CC4C2(C)C)c1 (stereo partly drawn) [Biphenyl Analogue]
TGI (HT29): >100000 nM
TGI (M14): 556 nM
GI50 (HS578T): 546 nM
CC50 (HS578T; read-out: LC50): > 100000 nM
TGI (NCI-H226): 707 nM
GI50 (OVCAR-8): 277 nM
CC50 (OVCAR-8; read-out: LC50): 3300 nM
TGI (MDA-MB-435 [1]): 440 nM
TGI (TK-10): 955 nM
TGI (MDA-MB-231/ATCC): 1050 nM
TGI (COLO 205): 259 nM
TGI (NCI-H522): 297 nM
TGI (MDA-MB-468 [2]): 590 nM
TGI (HCC-2998): 1060 nM
TGI (MALME-3M): 244 nM
GI50 (OVCAR-3): 158 nM
CC50 (OVCAR-3; read-out: LC50): 986 nM
TGI (A498): 1320 nM
TGI (SF-268): 767 nM
TGI (786-0): 398 nM
TGI (NCI/ADR-RES): 2270 nM
GI50 (SNB-75 [3]): 242 nM
CC50 (SNB-75 [3]; read-out: LC50): 3860 nM
TGI (DU-145): 813 nM
TGI (HCT-116): 377 nM
TGI (SK-MEL-28): 1080 nM
GI50 (SF-295): 392 nM
CC50 (SF-295; read-out: LC50): 3970 nM
GI50 (MDA-MB-435 [4]): 166 nM
CC50 (MDA-MB-435 [4]; read-out: LC50): 1410 nM
TGI (SR): 407 nM
GI50 (MDA-MB-468 [5]): 160 nM
CC50 (MDA-MB-468 [5]; read-out: LC50): 3030 nM
TGI (BT-549): 379 nM
TGI (SNB-75 [6]): 757 nM
TGI (SW-620): 349 nM
